Measurements taken from patent publication US20260130395A1, “Water Dispersible Botanical Compositions” (Aquila Black Limited, priority 2021, published 2026).

Assay: Stability of cannabinoid compounds and Vitamin E components in Beverage 2 (AB Red) by LCMSMS
Type: physicochemical
Protocol: The stability of the plant-derived cannabinoid compounds and Vitamin E components of the beverage stored 8° C. and at room temperature (21-25° C.) were monitored, over a period of 570 days via Liquid Chromatography-tandem Mass Spectrometry [LCMSMS, AGilent 6590, C18, 3×50 mm, 2.7 m (Agilent InfinityLab Poroshell 120 EC-C18), Electrospray Ionization detector]. The LCMSMS was calibrated for 0-50 ng/ml cannabinoids with the same resin material used in the preparation of the concentrates. At each time period, 100 ml of beverage was diluted with 10 ml of methanol and injected into the LCMSMS for analysis.

CCCCCc1cc(O)c2c(c1)OC(C)(CCC=C(C)C)C=C2 (centres unmarked) [CBC, cannabichromene]
Stability of Plant-Derived Cannabinoid Compounds in AB Red (stored at 8° C., 0 days): 0.290 µg/mL
Stability of Plant-Derived Cannabinoid Compounds in AB Red (stored at 8° C., 1 days): 0.289 µg/mL
Stability of Plant-Derived Cannabinoid Compounds in AB Red (stored at 8° C., 2 days): 0.292 µg/mL
Stability of Plant-Derived Cannabinoid Compounds in AB Red (stored at 8° C., 3 days): 0.285 µg/mL
Stability of Plant-Derived Cannabinoid Compounds in AB Red (stored at 8° C., 5 days): 0.286 µg/mL
Stability of Plant-Derived Cannabinoid Compounds in AB Red (stored at 8° C., 8 days): 0.286 µg/mL
Stability of Plant-Derived Cannabinoid Compounds in AB Red (stored at 8° C., 9 days): 0.288 µg/mL
Stability of Plant-Derived Cannabinoid Compounds in AB Red (stored at 8° C., 10 days): 0.288 µg/mL
Stability of Plant-Derived Cannabinoid Compounds in AB Red (stored at 8° C., 11 days): 0.284 µg/mL
Stability of Plant-Derived Cannabinoid Compounds in AB Red (stored at 8° C., 12 days): 0.285 µg/mL
Stability of Plant-Derived Cannabinoid Compounds in AB Red (stored at 8° C., 15 days): 0.292 µg/mL
Stability of Plant-Derived Cannabinoid Compounds in AB Red (stored at 8° C., 16 days): 0.283 µg/mL
Stability of Plant-Derived Cannabinoid Compounds in AB Red (stored at 8° C., 17 days): 0.282 µg/mL
Stability of Plant-Derived Cannabinoid Compounds in AB Red (stored at 8° C., 18 days): 0.289 µg/mL
Stability of Plant-Derived Cannabinoid Compounds in AB Red (stored at 8° C., 19 days): 0.287 µg/mL
Stability of Plant-Derived Cannabinoid Compounds in AB Red (stored at 8° C., 22 days): 0.287 µg/mL
Stability of Plant-Derived Cannabinoid Compounds in AB Red (stored at 8° C., 23 days): 0.287 µg/mL
Stability of Plant-Derived Cannabinoid Compounds in AB Red (stored at 8° C., 24 days): 0.291 µg/mL
Stability of Plant-Derived Cannabinoid Compounds in AB Red (stored at 8° C., 25 days): 0.287 µg/mL
Stability of Plant-Derived Cannabinoid Compounds in AB Red (stored at 8° C., 26 days): 0.287 µg/mL
Stability of Plant-Derived Cannabinoid Compounds in AB Red (stored at 8° C., 29 days): 0.284 µg/mL
Stability of Plant-Derived Cannabinoid Compounds in AB Red (stored at 8° C., 30 days): 0.282 µg/mL
Stability of Plant-Derived Cannabinoid Compounds in AB Red (stored at 8° C., 60 days): 0.278 µg/mL
Stability of Plant-Derived Cannabinoid Compounds in AB Red (stored at 8° C., 90 days): 0.287 µg/mL
Stability of Plant-Derived Cannabinoid Compounds in AB Red (stored at 8° C., 120 days): 0.289 µg/mL
Stability of Plant-Derived Cannabinoid Compounds in AB Red (stored at 8° C., 150 days): 0.281 µg/mL
Stability of Plant-Derived Cannabinoid Compounds in AB Red (stored at 8° C., 180 days): 0.285 µg/mL
Stability of Plant-Derived Cannabinoid Compounds in AB Red (stored at 8° C., 210 days): 0.282 µg/mL
Stability of Plant-Derived Cannabinoid Compounds in AB Red (stored at 8° C., 240 days): 0.280 µg/mL
Stability of Plant-Derived Cannabinoid Compounds in AB Red (stored at 8° C., 270 days): 0.284 µg/mL
Stability of Plant-Derived Cannabinoid Compounds in AB Red (stored at 8° C., 300 days): 0.280 µg/mL
Stability of Plant-Derived Cannabinoid Compounds in AB Red (stored at 8° C., 330 days): 0.278 µg/mL
Stability of Plant-Derived Cannabinoid Compounds in AB Red (stored at 8° C., 360 days): 0.282 µg/mL
Stability of Plant-Derived Cannabinoid Compounds in AB Red (stored at 8° C., 390 days): 0.282 µg/mL
Stability of Plant-Derived Cannabinoid Compounds in AB Red (stored at 8° C., 420 days): 0.277 µg/mL
Stability of Plant-Derived Cannabinoid Compounds in AB Red (stored at 8° C., 450 days): 0.282 µg/mL
Stability of Plant-Derived Cannabinoid Compounds in AB Red (stored at 8° C., 480 days): 0.274 µg/mL
Stability of Plant-Derived Cannabinoid Compounds in AB Red (stored at 8° C., 510 days): 0.267 µg/mL
Stability of Plant-Derived Cannabinoid Compounds in AB Red (stored at 8° C., 540 days): 0.271 µg/mL
Stability of Plant-Derived Cannabinoid Compounds in AB Red (stored at 8° C., 570 days): 0.266 µg/mL
Stability of Plant-Derived Cannabinoid Compounds in AB Red (stored at 21-25° C., 0 days): 0.29 µg/mL
Stability of Plant-Derived Cannabinoid Compounds in AB Red (stored at 21-25° C., 1 days): 0.28 µg/mL
Stability of Plant-Derived Cannabinoid Compounds in AB Red (stored at 21-25° C., 2 days): 0.28 µg/mL
Stability of Plant-Derived Cannabinoid Compounds in AB Red (stored at 21-25° C., 3 days): 0.29 µg/mL
Stability of Plant-Derived Cannabinoid Compounds in AB Red (stored at 21-25° C., 5 days): 0.28 µg/mL
Stability of Plant-Derived Cannabinoid Compounds in AB Red (stored at 21-25° C., 8 days): 0.28 µg/mL
Stability of Plant-Derived Cannabinoid Compounds in AB Red (stored at 21-25° C., 9 days): 0.28 µg/mL
Stability of Plant-Derived Cannabinoid Compounds in AB Red (stored at 21-25° C., 10 days): 0.29 µg/mL
Stability of Plant-Derived Cannabinoid Compounds in AB Red (stored at 21-25° C., 11 days): 0.29 µg/mL
Stability of Plant-Derived Cannabinoid Compounds in AB Red (stored at 21-25° C., 12 days): 0.28 µg/mL
Stability of Plant-Derived Cannabinoid Compounds in AB Red (stored at 21-25° C., 15 days): 0.28 µg/mL
Stability of Plant-Derived Cannabinoid Compounds in AB Red (stored at 21-25° C., 16 days): 0.28 µg/mL
Stability of Plant-Derived Cannabinoid Compounds in AB Red (stored at 21-25° C., 17 days): 0.28 µg/mL
Stability of Plant-Derived Cannabinoid Compounds in AB Red (stored at 21-25° C., 18 days): 0.29 µg/mL
Stability of Plant-Derived Cannabinoid Compounds in AB Red (stored at 21-25° C., 19 days): 0.29 µg/mL
Stability of Plant-Derived Cannabinoid Compounds in AB Red (stored at 21-25° C., 22 days): 0.29 µg/mL
Stability of Plant-Derived Cannabinoid Compounds in AB Red (stored at 21-25° C., 23 days): 0.28 µg/mL
Stability of Plant-Derived Cannabinoid Compounds in AB Red (stored at 21-25° C., 24 days): 0.29 µg/mL
Stability of Plant-Derived Cannabinoid Compounds in AB Red (stored at 21-25° C., 25 days): 0.28 µg/mL
Stability of Plant-Derived Cannabinoid Compounds in AB Red (stored at 21-25° C., 26 days): 0.28 µg/mL
Stability of Plant-Derived Cannabinoid Compounds in AB Red (stored at 21-25° C., 29 days): 0.29 µg/mL
Stability of Plant-Derived Cannabinoid Compounds in AB Red (stored at 21-25° C., 30 days): 0.29 µg/mL
Stability of Plant-Derived Cannabinoid Compounds in AB Red (stored at 21-25° C., 60 days): 0.29 µg/mL
Stability of Plant-Derived Cannabinoid Compounds in AB Red (stored at 21-25° C., 90 days): 0.28 µg/mL
Stability of Plant-Derived Cannabinoid Compounds in AB Red (stored at 21-25° C., 120 days): 0.29 µg/mL
Stability of Plant-Derived Cannabinoid Compounds in AB Red (stored at 21-25° C., 150 days): 0.29 µg/mL
Stability of Plant-Derived Cannabinoid Compounds in AB Red (stored at 21-25° C., 180 days): 0.28 µg/mL
Stability of Plant-Derived Cannabinoid Compounds in AB Red (stored at 21-25° C., 210 days): 0.29 µg/mL
Stability of Plant-Derived Cannabinoid Compounds in AB Red (stored at 21-25° C., 240 days): 0.28 µg/mL
Stability of Plant-Derived Cannabinoid Compounds in AB Red (stored at 21-25° C., 270 days): 0.29 µg/mL
Stability of Plant-Derived Cannabinoid Compounds in AB Red (stored at 21-25° C., 300 days): 0.29 µg/mL
Stability of Plant-Derived Cannabinoid Compounds in AB Red (stored at 21-25° C., 330 days): 0.29 µg/mL
Stability of Plant-Derived Cannabinoid Compounds in AB Red (stored at 21-25° C., 360 days): 0.28 µg/mL
Stability of Plant-Derived Cannabinoid Compounds in AB Red (stored at 21-25° C., 390 days): 0.28 µg/mL
Stability of Plant-Derived Cannabinoid Compounds in AB Red (stored at 21-25° C., 420 days): 0.28 µg/mL
Stability of Plant-Derived Cannabinoid Compounds in AB Red (stored at 21-25° C., 450 days): 0.28 µg/mL
Stability of Plant-Derived Cannabinoid Compounds in AB Red (stored at 21-25° C., 480 days): 0.28 µg/mL
Stability of Plant-Derived Cannabinoid Compounds in AB Red (stored at 21-25° C., 510 days): 0.27 µg/mL
Stability of Plant-Derived Cannabinoid Compounds in AB Red (stored at 21-25° C., 540 days): 0.28 µg/mL
Stability of Plant-Derived Cannabinoid Compounds in AB Red (stored at 21-25° C., 570 days): 0.27 µg/mL
